The values below are quoted from earlier work in US20050209551A1, “Detoxification and breast health preparations” (priority 2004, published 2005).

The subject of series [1] is precancerous lesions of the cervix and laryngeal papillomas. Conditions: pathologies with a human papillomavirus (HPV); reported.
For series [2] the following is noted: oral administration.

`c1ccc2c(Cc3c[nH]c4ccccc34)c[nH]c2c1` [DIM, 3,3′-diindolylmethane]: the “clinical effectiveness in treating precancerous lesions of the cervix and laryngeal papillomas” value in series [1] is “clinically effective”.

On to `O=C(O)CN(CCN(CC(=O)O)CC(=O)O)CC(=O)O` [EDTA, ethylene-diaminetetraacetic acid], for which, in series [2] (general consensus), the “fraction of EDTA absorbed when administered by mouth” value is “about five”. The “unabsorbed EDTA that remains within the digestive tract” value in series [2] (reported) is listed as 95%.

Regarding `OCc1c[nH]c2ccccc12` [Example I3C, indole-3-carbinol], the “clinical effectiveness in treating precancerous lesions of the cervix and laryngeal papillomas” value in series [1] is given as “clinically effective”.
